The values that follow come from US10125129B2 (priority 2016, dated 2018).

Each structure is given as a SMILES string. Read-outs that look alike come from different tables or passages of the source.

One series addresses T1, κ opioid receptor (KOR) (Homo sapiens, UniProt P41145).
T1 construct: expressed in transfected cells
The series is described as follows: cell-based. The series is classed as cell-based.

In the next series the target is T2, μ opioid receptor (MOR) (Homo sapiens, UniProt P35372).
T2 construct: expressed in transfected cells
T2 sequence (P35372 whole entry): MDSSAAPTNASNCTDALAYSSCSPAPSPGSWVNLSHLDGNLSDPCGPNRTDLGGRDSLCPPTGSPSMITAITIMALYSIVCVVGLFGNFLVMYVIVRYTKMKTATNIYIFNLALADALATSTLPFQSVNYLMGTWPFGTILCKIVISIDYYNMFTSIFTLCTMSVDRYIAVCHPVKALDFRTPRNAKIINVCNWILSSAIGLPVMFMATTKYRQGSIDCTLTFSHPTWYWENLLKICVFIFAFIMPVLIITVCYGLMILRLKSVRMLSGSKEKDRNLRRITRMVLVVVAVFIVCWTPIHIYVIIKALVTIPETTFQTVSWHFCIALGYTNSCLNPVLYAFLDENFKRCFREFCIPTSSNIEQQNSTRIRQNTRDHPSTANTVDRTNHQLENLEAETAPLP
The series is described as follows: cell-based. The format is cell-based.

T1 sequence (P41145 whole entry): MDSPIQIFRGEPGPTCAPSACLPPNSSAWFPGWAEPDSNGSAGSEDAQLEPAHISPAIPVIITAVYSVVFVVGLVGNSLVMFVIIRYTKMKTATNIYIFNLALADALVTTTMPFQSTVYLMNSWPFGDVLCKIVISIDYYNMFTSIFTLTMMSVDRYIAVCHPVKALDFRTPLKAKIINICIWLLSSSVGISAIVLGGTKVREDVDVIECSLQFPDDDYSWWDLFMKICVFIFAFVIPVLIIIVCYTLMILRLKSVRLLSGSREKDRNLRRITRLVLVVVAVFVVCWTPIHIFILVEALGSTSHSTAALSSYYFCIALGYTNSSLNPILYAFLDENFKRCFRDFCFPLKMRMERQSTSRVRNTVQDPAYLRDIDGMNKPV

Take `COC(=O)[C@@H]1C[C@H](NC(=O)c2ccccc2)C(=O)[C@H]2[C@@]1(C)CC[C@H]1C(=O)O[C@H](c3ccoc3)C[C@]21C` [Compound 3, reference compound]: the 50% effective concentration (EC50) at κ opioid receptor (KOR) was above 10000 nM; on μ opioid receptor (MOR) (EC50 ± SEM μ), 3 ± 0.4 nM. Besides, the “Selectivity μ/κ” value at μ opioid receptor (MOR) is >3 000.

Molecule `COC(=O)[C@@H]1C=C(OC(=O)c2cccc(O)c2)C(=O)[C@H]2[C@@]1(C)CC[C@H]1C(=O)O[C@H](c3ccoc3)C[C@]21C` [Table 3 Entry 2, (2S,4aR,6aR,7R,10aR,10bR)-Methyl 2-(furan-3-yl)-9-((3-hydroxybenzoyl)oxy)-6a,10b-dimethyl-4,10-dioxo-2,4,4a,5,6,6a,7,10,10a,10bdecahydro-1H-benzo[f]isochromene-7-carboxylate] displayed a melting point of 124 to 126 °C. The same molecule showed an EC50 at μ opioid receptor (MOR) (EC50) of 1.3 ± 0.3 nM.

`COC(=O)[C@@H]1C[C@H](OC(=O)c2ccc(C)cc2)C(=O)[C@H]2[C@@]1(C)CC[C@H]1C(=O)O[C@H](c3ccoc3)C[C@]21C` [Series 1 Entry 13, (2S,4aR,6aR,7R,9S,10aS,10bR)-Methyl 2-(furan-3-yl)-6a,10b-dimethyl-9-((4-methylbenzoyl)oxy)-4,10-dioxododecahydro-1H-benzo[f]isochromene-7-carboxylate] had an EC50 on μ opioid receptor (MOR) (Series 1 EC50) of 430 ± 10 nM.

Turning to `COC(=O)[C@@H]1C=C(OC(=O)c2ccccc2F)C(=O)[C@H]2[C@@]1(C)CC[C@H]1C(=O)O[C@H](c3ccoc3)C[C@]21C` [Series 2 Entry 8], on μ opioid receptor (MOR) (Series 2 EC50), the half-maximal effective concentration (EC50) turned out to be 4.7 ± 0.4 nM.

In the case of `COC(=O)[C@@H]1C=C(OC(=O)c2ccc([N+](=O)[O-])cc2)C(=O)[C@H]2[C@@]1(C)CC[C@H]1C(=O)O[C@H](c3ccoc3)C[C@]21C` [Series 2 Entry 4, (2S,4aR,6aR,7R,10aR,10bR)-Methyl 2-(furan-3-yl)-6a,10b-dimethyl-9-((4-nitrobenzoyl)oxy)-4,10-dioxo-2,4,4a,5,6,6a,7,10,10a,10b-decahydro-1H-benzo[f]isochromene-7-carboxylate], the EC50 at μ opioid receptor (MOR) (read-out: Series 2 EC50) is 31 ± 2 nM.

`COC(=O)[C@@H]1C[C@H](OC(=O)c2ccccc2C)C(=O)[C@H]2[C@@]1(C)CC[C@H]1C(=O)O[C@H](c3ccoc3)C[C@]21C` [Series 1 Entry 11, (2S,4aR,6aR,7R,9S,10aS,10bR)-Methyl 2-(furan-3-yl)-6a,10b-dimethyl-9-((2-methylbenzoyl)oxy)-4,10-dioxododecahydro-1H-benzo[f]isochromene-7-carboxylate] gave an EC50 on μ opioid receptor (MOR) (Series 1 EC50) of 1600 ± 400 nM.

Take `COC(=O)[C@@H]1C=C(OC(=O)c2ccc(OC)cc2)C(=O)[C@H]2[C@@]1(C)CC[C@H]1C(=O)O[C@H](c3ccoc3)C[C@]21C` [Series 2 Entry 16, (2S,4aR,6aR,7R,10aR,10bR)-Methyl 2-(furan-3-yl)-9-((4-methoxybenzoyl)oxy)-6a,10b-dimethyl-4,10-dioxo-2,4,4a,5,6,6a,7,10,10a,10b-decahydro-1H-benzo[f]isochromene-7-carboxylate]: on μ opioid receptor (MOR) (read-out: Series 2 EC50), the 50% effective concentration (EC50) stood at 8 ± 3 nM.

For the molecule `COC(=O)[C@@H]1C[C@H](OC(=O)c2cccc(C)c2)C(=O)[C@H]2[C@@]1(C)CC[C@H]1C(=O)O[C@H](c3ccoc3)C[C@]21C` [Series 1 Entry 12, (2S,4aR,6aR,7R,9S,10aS,10bR)-Methyl 2-(furan-3-yl)-6a,10b-dimethyl-9-((3-methylbenzoyl)oxy)-4,10-dioxododecahydro-1H-benzo[f]isochromene-7-carboxylate], the EC50 at μ opioid receptor (MOR) (Series 1 EC50) was determined as 1800 ± 300 nM.

In turn, `COC(=O)[C@@H]1C=C(OC(=O)c2ccncc2)C(=O)[C@H]2[C@@]1(C)CC[C@H]1C(=O)O[C@H](c3ccoc3)C[C@]21C` [Series 2 Entry 19, (2S,4aR,6aR,7R,10aR,10bR)-2-(Furan-3-yl)-7-(methoxycarbonyl)-6a,10b-dimethyl-4,10-dioxo-2,4,4a,5,6,6a,7,10,10a,10bdecahydro-1H-benzo[f]isochromen-9-yl isonicotinate] gave an EC50 on μ opioid receptor (MOR) (Series 2 EC50) of 6 ± 1 nM.

At μ opioid receptor (MOR) (Series 1 EC50), `COC(=O)[C@@H]1C[C@H](OC(=O)c2cccs2)C(=O)[C@H]2[C@@]1(C)CC[C@H]1C(=O)O[C@H](c3ccoc3)C[C@]21C` [Series 1 Entry 20] showed an EC50 of 330 ± 70 nM.

At μ opioid receptor (MOR) (Series 1 EC50), `COC(=O)[C@@H]1C[C@H](OC(=O)c2cccc(OC)c2)C(=O)[C@H]2[C@@]1(C)CC[C@H]1C(=O)O[C@H](c3ccoc3)C[C@]21C` [Series 1 Entry 15] displayed a 50% effective concentration (EC50) of 330 ± 20 nM.

As to `COC(=O)[C@@H]1C=C(OC(=O)c2ccccn2)C(=O)[C@H]2[C@@]1(C)CC[C@H]1C(=O)O[C@H](c3ccoc3)C[C@]21C` [Series 2 Entry 17, (2S,4aR,6aR,7R,10aR,10bR)-2-(Furan-3-yl)-7-(methoxycarbonyl)-6a,10b-dimethyl-4,10-dioxo-2,4,4a,5,6,6a,7,10,10bdecahydro-1H-benzo[f]isochromen-9-yl picolinate], the EC50 at μ opioid receptor (MOR) (Series 2 EC50) amounted to 410 ± 50 nM.

`COC(=O)[C@@H]1C=C(OC(=O)c2ccc(C)cc2)C(=O)[C@H]2[C@@]1(C)CC[C@H]1C(=O)O[C@H](c3ccoc3)C[C@]21C` [Series 2 Entry 13, (2S,4aR,6aR,7R,10aR,10bR)-Methyl 2-(furan-3-yl)-6a,10b-dimethyl-9-((4-methylbenzoyl)oxy)-4,10-dioxo-2,4,4a,5,6a,7,10,10a,10b-decahydro-1H-benzo[f]isochromene-7-carboxylate]: on μ opioid receptor (MOR) (read-out: Series 2 EC50), the EC50 was 21.8 ± 0.3 nM.

For the molecule `COC(=O)[C@@H]1C=C(OC(=O)/C=C/c2ccccc2)C(=O)[C@H]2[C@@]1(C)CC[C@H]1C(=O)O[C@H](c3ccoc3)C[C@]21C` [Table 3 Entry 6, (2S,4aR,6aR,7R,10aR,10bR)-Methyl 9-(cinnamoyloxy)-2-(furan-3-yl)-6a,10b-dimethyl-4,10-dioxo-2,4,4a,5,6,6a,7,10,10a,10b-decahydro-1Hbenzo[f]isochromene-7-carboxylate], the EC50 at μ opioid receptor (MOR) (EC50) was 30 ± 10 nM.

Take `COC(=O)[C@@H]1C[C@H](OC(=O)c2ccccc2[N+](=O)[O-])C(=O)[C@H]2[C@@]1(C)CC[C@H]1C(=O)O[C@H](c3ccoc3)C[C@]21C` [Series 1 Entry 2]: the 50% effective concentration (EC50) on μ opioid receptor (MOR) (Series 1 EC50) was 2000 ± 1000 nM.

The molecule `COC(=O)[C@@H]1C[C@H](OC(=O)c2cccnc2)C(=O)[C@H]2[C@@]1(C)CC[C@H]1C(=O)O[C@H](c3ccoc3)C[C@]21C` [Series 1 Entry 18] gave an EC50 on μ opioid receptor (MOR) (Series 1 EC50) of 240 ± 20 nM.

Consider `COC(=O)[C@@H]1C=C(OC(=O)c2ccsc2)C(=O)[C@H]2[C@@]1(C)CC[C@H]1C(=O)O[C@H](c3ccoc3)C[C@]21C` [Series 2 Entry 21, (2S,4aR,6aR,7R,10aR,10bR)-Methyl 2-(furan-3-yl)-6a,10bdimethyl-4,10-dioxo-9-((thiophene-3-carbonyl)oxy)-2,4,4a,5,6,6a,7,10,10a,10b-decahydro-1H-benzo[f]isochromene-7-carboxylate], for which, on μ opioid receptor (MOR) (Series 2 EC50), the 50% effective concentration (EC50) was found to be 1.3 ± 0.9 nM.

Consider `COC(=O)[C@@H]1C=C(OC(=O)Cc2ccccc2)C(=O)[C@H]2[C@@]1(C)CC[C@H]1C(=O)O[C@H](c3ccoc3)C[C@]21C` [Table 3 Entry 4, (2S,4aR,6aR,7R,10aR,10bR)-Methyl 2-(furan-3-yl)-6a,10bdimethyl-4,10-dioxo-9-(2-phenylacetoxy)-2,4,4a,5,6,6a,7,10a,10b-decahydro-1Hbenzo[f]isochromene-7-carboxylate], for which the EC50 on μ opioid receptor (MOR) (EC50) was determined as 130 ± 50 nM.

A word on the EC50: it is the concentration giving half of the maximal effect. Usually melting point stands for the temperature, or range, at which the solid turns liquid.
